# Laboratory results: US7030242B2, “Selective inhibition of aggrecanase in osteoarthritis treatment” (Pfizer Inc, priority 1999, dated 2006)
# How the values were obtained:
# [1] = target: T1, Human recombinant collagenase-1 (Homo sapiens, UniProt P03956); test: Inhibition of human collagenase-1 (recombinant collagenase-1 assay); assay type: biochemical; conditions: Table 2, read-out: MMP-1 (IC50 class)
# T1 sequence (P03956 100-469): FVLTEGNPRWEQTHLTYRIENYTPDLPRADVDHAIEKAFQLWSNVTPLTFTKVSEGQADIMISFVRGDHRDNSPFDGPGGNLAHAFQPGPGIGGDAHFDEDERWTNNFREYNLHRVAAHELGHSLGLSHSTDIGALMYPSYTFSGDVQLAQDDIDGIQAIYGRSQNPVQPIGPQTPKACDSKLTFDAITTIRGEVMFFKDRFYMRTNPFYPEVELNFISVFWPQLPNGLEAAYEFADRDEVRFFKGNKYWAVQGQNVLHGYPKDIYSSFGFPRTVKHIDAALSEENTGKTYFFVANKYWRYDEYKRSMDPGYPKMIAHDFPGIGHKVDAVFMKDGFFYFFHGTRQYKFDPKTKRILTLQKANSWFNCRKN
# Protocol: Inhibition of Human Collagenase-1 (Recombinant Collagenase-1 Assay)
# This assay is used in the invention to measure the potency (IC50s) of compounds for collagenase-1.
# Human recombinant collagenase-1 is activated with trypsin. The amount of trypsin is optimized for each lot of collagenase-1, but a typical reaction uses the following ratio: 5 mg trypsin per 100 mg of collagenase.
# Stock solutions (10 mM) of inhibitors are made up in dimethylsulfoxide and then diluted using the following scheme: • 10 mM------>120 μM------>12 μM------>1.2 μM------>0.12 μM
# Twenty-five microliters of each concentration is then added in triplicate to appropriate wells of a 96 well microfluor plate. The final concentration of inhibitor will be a 1:4 dilution after addition of enzyme and substrate. Positive controls (enzyme, no inhibitor) are set up in wells D7–D12 and negative controls (no enzyme, no inhibitors) are set in wells D1–D6.
# Collagenase-1 is diluted to 240 ng/ml and […] is then added to appropriate wells of the microfluor plate. Final concentration of collagenase in the assay is 60 ng/ml.
# Substrate (DNP-Pro-Cha-Gly-Cys(Me)-His-Ala-Lys(NMA)-NH2) is made as a 5 mM stock in dimethylsulfoxide and then diluted to 20 μM in assay buffer. The assay is initiated by the addition of […] substrate per well of the microfluor plate to give a final concentration of 10 μM.
# Fluorescence readings (360 nm excitation, 460 nm emission) are taken at time 0 and then at about 20 minute intervals. The assay is conducted at a temperature of about 20 to about 25° C., preferably about 23° C. with a typical assay time of about 3 hours.
# Fluorescence versus time is then plotted for both the blank and collagenase containing samples (data from triplicate determinations is averaged). A time point that provides a good signal (at least five fold over the blank) and that is on a linear part of the curve (usually around 120 minutes) is chosen to determine IC50 values. The zero time is used as a blank for each compound at each concentration and these values are subtracted from the 120 minute data. Data is plotted as inhibitor concentration versus % control (inhibitor fluorescence divided by fluorescence of collagenase alone ×100).
# [2] = target: Human recombinant collagenase-3 (Homo sapiens, UniProt P45452); test: Inhibition of human collagenase-3 (recombinant collagenase-3 assay); assay type: biochemical; conditions: Table 2; recombinant collagenase-3 assay; read-out: MMP-13 (IC50 class)
# Protocol: Inhibition of Human Collagenase-3 (Recombinant Collagenase-3 Assay)
# This assay is used in the invention to measure the potency (IC50s) of compounds for collagenase-3.
# Human recombinant collagenase-3 is activated with 2 mM APMA (p-aminophenyl mercuric acetate) for about 2.0 hours, at about 37° C. and is diluted to about 240 ng/ml in assay buffer (50 mM Tris, pH 7.5, 200 mM sodium chloride, 5 mM calcium chloride, […], 0.02% BRIJ-35). Twenty-five micro-liters of diluted enzyme is added per well of a 96 well microfluor plate.
# The final concentrations in the assay are 30 μM, 3 μM, 0.3 μM, and 0.03 μM.
# Fluorescence readings (360 nm excitation; 450 nm emission) are taken at time 0 and about every 5 minutes for about 1 hour.
# Positive controls and negative controls are set up in triplicate as outlined in the collagenase-1 assay. IC50's are determined as per inhibition of human collagenase (collagenase-1).
# aggrecanase = test: Aggrecanase chondrocyte assay (35S-proteoglycan release, IL-1 stimulated); assay type: cell-based, porcine; conditions: Table 2; aggrecanase chondrocyte assay; read-out: Agg (aggrecanase IC50 class)
# Protocol: Aggrecanase Chondrocyte Assay
# This assay is used in the invention to measure the potency (IC50s) of compounds for aggrecanase.
# Primary porcine chondrocytes from articular joint cartilage are isolated by sequential trypsin and collagenase digestion followed by collagenase digestion overnight and are plated at 2×10^5 cells per well into 48 well plates with 5 μCi/ml ^35S (1000 Ci/mmol) sulphur in type I collagen coated plates. Cells are allowed to incorporate label into their proteoglycan matrix (approximately 1 week) at 37° C., under an atmosphere of 5% CO2.
# The night before initiating the assay, chondrocyte monolayers are washed two times in DMEM/1% PSF/G and then allowed to incubate in fresh DMEM/1% FBS overnight.
# The following morning chondrocytes are washed once in DMEM/1% PSF/G. The final wash is allowed to sit on the plates in the incubator while making dilutions. Media and dilutions can be made as described in the Table I below.
# Plates are labeled and only the interior 24 wells of the plate are used. On one of the plates, several columns are designated as IL-1 (no drug) and Control (no IL-1, no drug). These control columns are periodically counted to monitor 35S-proteoglycan release. Control and IL-1 media are added to wells (450 μl) followed by compound (50 μl) so as to initiate the assay. Plates are incubated at 37° C., with a 5% CO2 atmosphere.
# At 40–50% release (when CPM from IL-1 media is 4–5 times control media) as assessed by liquid scintillation counting (LSC) of media samples, the assay is terminated (about 9 to about 12 hours). Media is removed from all wells and placed in scintillation tubes. Scintillate is added and radioactive counts are acquired (LSC). To solubilize cell layers, 500 μL of papain digestion buffer (0.2 M Tris, pH 7.0, 5 mM EDTA, 5 mM DTT, and 1 mg/ml papain) is added to each well. Plates with digestion solution are incubated at 60° C. overnight. The cell layer is removed from the plates the next day and placed in scintillation tubes. Scintillate is then added, and samples counted (LSC).
# The percent of released counts from the total present in each well is determined. Averages of the triplicates are made with control background subtracted from each well.
# TACE = target: T2, TACE (Homo sapiens, UniProt P78536); test: Inhibition of soluble TNF-α production (TACE whole blood assay); assay type: cell-based; conditions: Table 2, read-out: TACE (IC50 class)
# T2 construct: Human mononuclear cells are isolated from anti-coagulated human blood; endogenous in cells; host or cells: human peripheral blood mononuclear cells, LPS stimulated
# Protocol: Inhibition of Soluble TNF-α Production (TACE Whole Blood Assay)
# This assay is used in the invention to measure the potency (IC50s) of compounds for TACE.
# Human mononuclear cells are isolated from anti-coagulated human blood using a one-step Ficoll-hypaque separation technique. (2) The mononuclear cells are washed three times in Hanks balanced salt solution (HBSS) with divalent cations and re-suspended to a density of 2×10^6/ml in HBSS containing 1% BSA.
# 180 μL of the cell suspension was aliquoted into flat bottom 96 well plates (Costar). Additions of compounds and LPS (100 ng/ml final concentration) gives a final volume of 200 μL. All conditions are performed in triplicate. After about a four hour incubation at about 37° C. in an humidified CO2 incubator, plates are removed and centrifuged (about 10 minutes at approximately 250×g) and the supernatants removed and assayed for TNF-α using the R&D ELISA Kit.
# T2 sequence (P78536 215-824): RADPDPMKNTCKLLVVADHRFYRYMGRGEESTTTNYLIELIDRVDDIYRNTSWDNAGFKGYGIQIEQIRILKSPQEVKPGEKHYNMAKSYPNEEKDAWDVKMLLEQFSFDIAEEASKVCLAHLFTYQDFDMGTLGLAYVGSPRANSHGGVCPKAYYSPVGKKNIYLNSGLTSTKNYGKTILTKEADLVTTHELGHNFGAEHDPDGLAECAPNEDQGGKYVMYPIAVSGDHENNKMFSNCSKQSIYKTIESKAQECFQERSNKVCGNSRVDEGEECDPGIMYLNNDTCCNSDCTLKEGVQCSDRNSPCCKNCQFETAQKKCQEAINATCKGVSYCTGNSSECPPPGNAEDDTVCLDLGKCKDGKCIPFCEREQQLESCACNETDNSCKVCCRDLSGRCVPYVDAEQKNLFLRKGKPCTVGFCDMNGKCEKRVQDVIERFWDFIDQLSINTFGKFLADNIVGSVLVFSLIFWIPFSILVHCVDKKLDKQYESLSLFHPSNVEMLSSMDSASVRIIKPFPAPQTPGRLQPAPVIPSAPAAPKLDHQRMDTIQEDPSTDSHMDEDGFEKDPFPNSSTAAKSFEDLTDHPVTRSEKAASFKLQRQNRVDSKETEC
SMILES,IC50 [1] [µM],IC50 [2] [µM],IC50 (aggrecanase) [µM],IC50 (TACE) [µM]
"C[C@@]1(O)CCCN(S(=O)(=O)c2ccc(OCc3ccc(F)cc3F)cc2)[C@H]1C(=O)NO [(2R,3R) 1-[4-(2,4-difluoro-benzyloxy)-benzenesulfonyl]-3-hydroxy-3-methyl-piperidine-2-carboxylic acidhydroxyamide]",0.2 to 1,< 0.01,0.01 to 0.02,10 to 20
"Cc1cc(F)ccc1COc1ccc(S(=O)(=O)N2C[C@H](O)CC(C)(C)[C@@H]2C(=O)NO)cc1 [(2R,5R) 1-[4-(4-fluoro-2-methyl-benzyloxy)-benzenesulfonyl]-5-hydroxy-3,3-dimethyl-piperidine-2-carboxylic acidhydroxyamide]",0.2 to 1,< 0.01,< 0.01,< 10
"CC1(C)C[C@@H](O)CN(S(=O)(=O)c2ccc(OCc3ccccc3Br)cc2)[C@H]1C(=O)NO [(2R,5R) 1-[4-(2-bromo-benzyloxy)-benzenesulfonyl]-5-hydroxy-3,3-dimethyl-piperidine-2-carboxylic acidhydroxyamide]",0.2 to 1,< 0.01,0.01 to 0.02,< 10
"C[C@@]1(O)CCCN(S(=O)(=O)c2ccc(OCc3ccc(F)cc3Cl)cc2)[C@H]1C(=O)NO [(2R,3R) 1-[4-(2-chloro-4-fluoro-benzyloxy)-benzenesulfonyl]-3-hydroxy-3-methyl-piperidine-2-carboxylic acidhydroxyamide]",0.2 to 1,< 0.01,< 0.01,10 to 20
"CC1(C)C[C@@H](O)CN(S(=O)(=O)c2ccc(OCc3cc(Cl)ccc3F)cc2)[C@H]1C(=O)NO [(2R,5R) 1-[4-(2-fluoro-5-chloro-benzyloxy)-benzenesulfonyl]-5-hydroxy-3,3-dimethyl-piperidine-2-carboxylic acidhydroxyamide]",0.2 to 1,< 0.01,0.01 to 0.02,10 to 20
"Cc1ccccc1COc1ccc(S(=O)(=O)N2CCC[C@@](C)(O)C2C(=O)NO)cc1 (stereo partly drawn) [(2R,3R) 1-[4-(2-methyl-benzyloxy)-benzenesulfonyl]-3-hydroxy-3-methyl-piperidine-2-carboxylic acidhydroxyamide]",0.2 to 1,< 0.01,< 0.01,< 10
"Cc1cc(F)ccc1COc1ccc(S(=O)(=O)N2CC(=O)N[C@@H](C)[C@@H]2C(=O)NO)cc1 [(2R,3S) 1-[4-(4-fluoro-2-methyl-benzyloxy)-benzenesulfonyl]-3-methyl-5-oxo-piperazine-2-carboxylic acidhydroxyamide]",> 1,0.01 to 0.02,< 0.01,< 10
"Cc1ccc(Cl)cc1COc1ccc(S(=O)(=O)N2C[C@H](O)CC(C)(C)[C@@H]2C(=O)NO)cc1 [(2R,5R) 1-[4-(2-methyl-5-chloro-benzyloxy)-benzenesulfonyl]-5-hydroxy-3,3-dimethyl-piperidine-2-carboxylic acidhydroxyamide]",> 1,0.02 to 0.2,0.01 to 0.02,10 to 20
"Cc1ccccc1COc1ccc(S(=O)(=O)N2CCN(C(=O)CN)[C@@H](C)[C@@H]2C(=O)NO)cc1 [(2R,3S) 1-[4-(2-methyl-benzyloxy)-benzenesulfonyl]-4-aminoacetyl-3-methyl-piperazine-2-carboxylic acidhydroxyamide]",> 1,0.02 to 0.2,< 0.01,< 10
"CC1(C)C[C@@H](O)CN(S(=O)(=O)c2ccc(OCc3ccc(F)cc3)cc2)[C@H]1C(=O)NO [(2R,5R) 1-[4-(4-fluoro-benzyloxy)-benzenesulfonyl]-5-hydroxy-3,3-dimethyl-piperidine-2-carboxylic acidhydroxyamide]",0.02 to 0.2,< 0.01,< 0.01,10 to 20
"Cc1ccccc1COc1ccc(S(=O)(=O)N2CCC[C@](C)(O)[C@@H]2C(=O)NO)cc1 [(2R,3S) 1-[4-(2-methyl-benzyloxy)-benzenesulfonyl]-3-hydroxy-3-methyl-piperidine-2-carboxylic acidhydroxyamide]",0.2 to 1,< 0.01,0.01 to 0.02,< 10
"Cc1c(F)cccc1COc1ccc(S(=O)(=O)N2C[C@H](O)CC(C)(C)[C@@H]2C(=O)NO)cc1 [(2R,5R) 1-[4-(2-methyl-3-fluoro-benzyloxy)-benzenesulfonyl]-5-hydroxy-3,3-dimethyl-piperidine-2-carboxylic acidhydroxyamide]",0.2 to 1,< 0.01,< 0.01,< 10
